Data from patent US12065446B2, “Inhibitors of Bruton's tyrosine kinase and method of their use” (JANSSEN PHARMACEUTICA NV, priority 2015, dated 2024).

Molecular target: unphosphorylated-BTK kinase domain (UP-BTK), GST-tagged human BTK (389-659aa) (Homo sapiens (Human), UniProt Q06187)
Assay: BTK kinase lanthascreen binding assay
Conditions: competition with 50 nM Tracer 236, 60 minutes; pIC50 = negative log of the IC50 in molar
Description: BTK kinase lanthascreen binding assay: A BTK kinase lanthascreen binding assay monitors compound binding to unphosphorylated-BTK kinase domain (UP-BTK), by competing with a fluorescent labeled tracer. […] Data were analyzed using Xlfit™ version 5.3 from ID Business Solutions (Guildford), Microsoft Excel add-in. pIC50 refers to the negative log of the IC50 in molar.

unphosphorylated-BTK kinase domain (UP-BTK), GST-tagged human BTK (389-659aa), sequence (Q06187 389-659): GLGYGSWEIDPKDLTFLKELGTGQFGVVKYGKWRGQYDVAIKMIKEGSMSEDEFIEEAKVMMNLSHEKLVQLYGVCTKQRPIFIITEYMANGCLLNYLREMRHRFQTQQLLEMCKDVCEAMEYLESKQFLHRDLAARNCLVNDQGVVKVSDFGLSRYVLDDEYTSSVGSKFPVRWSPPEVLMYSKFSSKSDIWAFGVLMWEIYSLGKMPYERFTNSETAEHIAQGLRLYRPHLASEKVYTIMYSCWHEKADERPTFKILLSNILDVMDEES

Structure (SMILES): C=CC(=O)N[C@@H]1CC[C@@H](NC(=O)c2sc3nccc4c3c2NC(=O)N4c2ccc(Oc3ccccc3)nc2)C1 (racemic) [Example 188, N-((1RS, 3RS)-3-Acrylamidocyclopentyl)-4-oxo-5-(6-phenoxypyridin-3-yl)-4,5-dihydro-3H-1-thia-3,5,8-triazaacenaphthylene-2-carboxamide]
- BTK_I_binding pIC50: 7.11
